This note sets out measurements from ChEMBL document CHEMBL5113368, “Meroterpenoids produced by fungi: Occurrence, structural diversity, biological activities, and their molecular targets” (Eur J Med Chem, 2021).

For data set [1], the system named is Clavibacter michiganensis subsp. sepedonicus. Briefly: Antibacterial activity against Clavibacter michiganensis subsp. sepedonicus assessed as inhibition of bacterial growth measured after 18 to 48 hrs. To be noted: time 18-48 hrs. Format: functional.
The test system of the next data set is KB. The data set can be described thus: Cytotoxicity against human KB cells assessed as cell growth inhibition. Format: functional, cell-based.
For a further data set, the system named is NCI-H187. The data set can be described thus: Cytotoxicity against human NCI-H187 cells assessed as cell growth inhibition. The data set is classed as functional, cell-based.
In another data set the test system is Plasmodium falciparum. Briefly: Antimalarial activity multidrug-resistant Plasmodium falciparum K1 assessed as inhibition of parasite growth by [3H]-hypoxanthine incorporation assay. The data set is classed as functional, organism-based.
A short description of data set [2]: Toxicity in brine shrimp assessed as induction of lethality. To be noted: artemia salina; read-out: LD50 (the source's name).
Data set [3] is described as follows: Cytotoxicity against rat IEC-6 cells assessed as cell growth inhibition by WST-1 assay. The data set is classed as toxicity, cell-based. In general terms: Tetrazolium assays rely on reduction of a dye to a coloured formazan, in cell work by metabolically active cells.
Data set [4] can be described thus: Inhibition of rat intestinal alpha-glucosidase.
Data set [5] is described as follows: Inhibition of rat intestinal sucrase.
Data set [6] in a line: Inhibition of rat intestinal maltase.
A short description of data set [7]: Antioxidant activity assessed as ABTS radical scavenging activity. The data set is classed as functional.
Data set [8] can be described thus: Antioxidant activity assessed as DPPH radical scavenging activity. The data set is classed as functional. Background: Loss of DPPH colour is used to gauge radical scavenging.
Another data set concerns MGC-803. Briefly: Cytotoxicity against human MGC-803 cells assessed as cell growth inhibition measured after 72 hrs by MTT assay. The data set is classed as functional.
For a further data set, the system named is Phytophthora nicotianae. The data set can be described thus: Antifungal activity Phytophthora parasitica assessed as inhibition of fungal growth by microbroth dilution method. Format: functional. On the technique in general: Broth dilution looks for growth in wells or tubes with falling amounts of substance.
In another data set the test system is Verticillium dahliae. Briefly: Antifungal activity Verticillium dahliae assessed as inhibition of fungal growth by microbroth dilution method. Format: functional.
In the next data set the test system is Bacillus subtilis. Briefly: Antibacterial activity against Bacillus subtilis assessed as reduction in microbial growth by modified broth dilution test. Format: functional.
Data set [9] concerns Mycobacterium tuberculosis. Briefly: Antimycobacterial activity against Mycobacterium tuberculosis H37Ra assessed as inhibition of bacterial growth by microplate alamar blue assay. The data set is classed as functional.
In data set [10] the target is Epithelial discoidin domain-containing receptor 1 (Homo sapiens, UniProt Q08345). The data set can be described thus: Inhibition of DDR1 (unknown origin) by lanthascreen eu kinase activity assay.
Data set [11] addresses T1, Tyrosine-protein kinase JAK3 (Homo sapiens, UniProt P52333).
T1 sequence (P52333 whole entry): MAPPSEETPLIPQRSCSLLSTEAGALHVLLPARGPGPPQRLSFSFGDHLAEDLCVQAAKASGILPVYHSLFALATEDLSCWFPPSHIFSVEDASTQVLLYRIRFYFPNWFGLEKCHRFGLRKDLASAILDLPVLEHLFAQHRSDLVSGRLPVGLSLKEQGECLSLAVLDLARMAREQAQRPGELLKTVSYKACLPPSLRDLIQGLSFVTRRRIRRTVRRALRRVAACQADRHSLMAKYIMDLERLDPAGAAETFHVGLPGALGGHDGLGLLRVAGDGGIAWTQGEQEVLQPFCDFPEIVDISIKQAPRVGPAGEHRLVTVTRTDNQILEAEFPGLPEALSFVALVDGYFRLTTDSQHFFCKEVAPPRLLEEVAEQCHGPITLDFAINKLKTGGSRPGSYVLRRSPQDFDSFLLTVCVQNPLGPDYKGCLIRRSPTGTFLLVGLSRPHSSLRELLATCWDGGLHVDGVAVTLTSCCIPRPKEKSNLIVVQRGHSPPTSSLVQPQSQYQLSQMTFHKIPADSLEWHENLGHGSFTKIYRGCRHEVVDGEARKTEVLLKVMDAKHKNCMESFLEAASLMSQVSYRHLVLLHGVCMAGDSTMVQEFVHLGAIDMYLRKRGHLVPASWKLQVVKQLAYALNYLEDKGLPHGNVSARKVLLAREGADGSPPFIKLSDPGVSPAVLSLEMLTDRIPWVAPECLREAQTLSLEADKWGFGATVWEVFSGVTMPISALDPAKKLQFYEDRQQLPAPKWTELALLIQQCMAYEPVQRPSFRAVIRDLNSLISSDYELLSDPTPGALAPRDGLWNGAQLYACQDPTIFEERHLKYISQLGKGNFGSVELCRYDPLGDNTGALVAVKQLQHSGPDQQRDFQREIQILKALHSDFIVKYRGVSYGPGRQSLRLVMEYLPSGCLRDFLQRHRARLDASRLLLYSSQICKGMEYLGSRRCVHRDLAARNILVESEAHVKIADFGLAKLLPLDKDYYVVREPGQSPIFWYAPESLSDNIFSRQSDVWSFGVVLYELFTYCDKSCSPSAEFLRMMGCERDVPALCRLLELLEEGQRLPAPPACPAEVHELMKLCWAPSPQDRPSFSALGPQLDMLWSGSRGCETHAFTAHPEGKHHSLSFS
Briefly: Inhibition of JAK3 (unknown origin) by FRET-based Z'-Lyte assay.

The next data set concerns A549. The data set can be described thus: Cytotoxicity against human A549 cells assessed as cell growth inhibition by CCK-8 method. Format: functional, cell-based.
In data set [12] the target is T2, Prostaglandin G/H synthase 2 (Homo sapiens, UniProt P35354).
T2 sequence (P35354 whole entry): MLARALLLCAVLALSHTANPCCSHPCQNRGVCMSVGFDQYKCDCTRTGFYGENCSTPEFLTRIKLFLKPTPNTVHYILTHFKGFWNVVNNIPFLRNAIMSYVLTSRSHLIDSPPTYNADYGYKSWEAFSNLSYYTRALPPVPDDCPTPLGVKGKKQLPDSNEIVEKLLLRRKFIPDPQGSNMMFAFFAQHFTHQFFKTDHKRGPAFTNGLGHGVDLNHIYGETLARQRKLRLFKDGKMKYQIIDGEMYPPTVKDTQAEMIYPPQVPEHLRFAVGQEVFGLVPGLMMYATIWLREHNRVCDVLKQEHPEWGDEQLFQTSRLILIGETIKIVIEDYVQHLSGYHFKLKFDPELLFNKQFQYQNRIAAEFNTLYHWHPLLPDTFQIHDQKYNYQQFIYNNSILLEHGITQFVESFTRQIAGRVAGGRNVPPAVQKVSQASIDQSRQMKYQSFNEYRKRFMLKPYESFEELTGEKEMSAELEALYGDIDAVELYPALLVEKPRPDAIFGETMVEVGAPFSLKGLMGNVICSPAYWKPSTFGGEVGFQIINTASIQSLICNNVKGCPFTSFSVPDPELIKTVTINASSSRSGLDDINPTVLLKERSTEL
Briefly: Inhibition of human recombinant COX-2 pretreated with compound for 10 mins followed by substrate addition for 10 mins by fluorescent inhibitor screening assay.

Another data set has as its system HL-60. Briefly: Cytotoxicity against human HL-60 cells assessed as cell growth inhibition measured after 48 hrs by MTT assay. Format: functional, cell-based. To be noted: HL-60, 48 h.

Converted amounts (≈) assume the structure as drawn.

Epithelial discoidin domain-containing receptor 1, sequence (Q08345 whole entry, the tested form may be a part): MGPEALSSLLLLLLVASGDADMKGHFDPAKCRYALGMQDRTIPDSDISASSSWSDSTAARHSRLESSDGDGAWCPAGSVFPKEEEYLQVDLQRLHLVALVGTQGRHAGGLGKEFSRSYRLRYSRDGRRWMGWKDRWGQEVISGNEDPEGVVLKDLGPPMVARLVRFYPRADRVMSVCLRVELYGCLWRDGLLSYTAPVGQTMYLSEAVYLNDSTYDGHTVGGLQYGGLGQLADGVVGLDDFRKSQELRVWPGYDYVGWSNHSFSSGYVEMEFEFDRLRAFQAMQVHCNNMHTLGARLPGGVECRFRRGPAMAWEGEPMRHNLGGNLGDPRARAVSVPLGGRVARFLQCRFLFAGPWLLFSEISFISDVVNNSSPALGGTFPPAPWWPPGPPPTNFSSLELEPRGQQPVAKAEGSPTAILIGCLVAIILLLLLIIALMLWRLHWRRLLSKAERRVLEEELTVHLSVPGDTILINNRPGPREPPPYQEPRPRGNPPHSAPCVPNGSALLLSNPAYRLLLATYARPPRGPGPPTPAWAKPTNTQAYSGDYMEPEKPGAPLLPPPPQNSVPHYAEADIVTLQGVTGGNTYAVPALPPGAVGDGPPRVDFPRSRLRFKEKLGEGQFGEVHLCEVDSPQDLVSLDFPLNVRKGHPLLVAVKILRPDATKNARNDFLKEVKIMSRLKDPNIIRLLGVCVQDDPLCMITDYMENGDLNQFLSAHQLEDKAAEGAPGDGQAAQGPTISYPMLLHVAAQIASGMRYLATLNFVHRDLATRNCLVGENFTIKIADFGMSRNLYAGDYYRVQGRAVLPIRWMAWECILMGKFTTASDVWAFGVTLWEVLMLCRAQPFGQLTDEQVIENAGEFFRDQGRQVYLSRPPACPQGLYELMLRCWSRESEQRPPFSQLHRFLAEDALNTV

One may read the MIC as the least concentration at which growth counts as inhibited. As to `CC1=CC[C@H]2C(C)(C)C(=O)CC[C@]2(C)[C@H]1C[C@@]12O[C@@H]1[C@H](O)C(CO)=C[C@H]2O`, in [1], the MIC was determined as 9.48 µg/mL (≈ 25.2 µM).

One may read the IC50 as the concentration that gives 50% inhibition. For the molecule `CC(=O)O[C@H]1C[C@@H](OC(C)=O)[C@@]2(C)[C@@H](CC[C@]3(C)[C@@H]2CC[C@]2(C)Oc4oc(C)cc(=O)c4C[C@@H]32)C1(C)C`, the figures for the IC50 with KB, in the data set with NCI-H187 and in the data set on Plasmodium falciparum were 32.7 µM, 32.7 µM and 6.67 µM, respectively.

On to `C=C(C)[C@H]1O[C@H]2CC[C@@]3(C)[C@@](O)(CC[C@@]4(O)[C@@H]5OC(C)(C)[C@H]6C[C@@H]7C(=C)Cc8c(Cl)cc9[nH]c(c5c9c8[C@@]76O)[C@]34C)[C@]23O[C@@H]3[C@H]1O`, for which the LC50 in [2] was 3.2 µM.

On to `C=C1[C@@]2(C)C[C@H]3C(=C)[C@]4(C=CC(=O)OC4(C)C)CC[C@]3(C)[C@@]13C(=O)O[C@@H](C)[C@@]3(O)C2=O`, for which the IC50 in data set [3] was 2.52 µg/mL (≈ 5.91 µM).

On to `C/C(=C\CC/C(=C/Cc1cc(O)ccc1O)C(=O)O)CC[C@@H](O)C(C)(C)O`, for which the IC50 in [4] came to 18.1 µM; in data set [5], 14.6 µM; in data set [6] it was 11.1 µM.

Regarding `C/C(=C\CCC1=CC(c2cc(O)ccc2O)OC1=O)C(=O)O` (stereo not drawn), the IC50 amounted to 31.2 µM in [7] and 65.4 µM in [8].

By CC50 is commonly meant the concentration at which the toxic effect on the cells reaches its halfway point. Regarding `CC(=O)OC[C@@]1(C)[C@@H]2C[C@H](OC(C)=O)[C@@]3(C)Oc4cc(-c5ccccc5)oc(=O)c4[C@H](O)[C@@H]3[C@@]2(C)C=C[C@@H]1O`, the CC50 with MGC-803 was 19.1 µM.

Turning to `Cc1oc(=O)c2c(c1C)O[C@]1(C)[C@H](O)C(=O)[C@]3(O)C(C)(C)C(=O)C[C@@]3(O)[C@H](C)[C@H]1C2`, the MIC in the data set on Phytophthora nicotianae, with Verticillium dahliae and in the data set with Bacillus subtilis was 12.5 µg/mL each time.

Consider `CC(=O)O[C@H]1C[C@@H](O)[C@@]2(C)[C@@H](CC[C@]3(C)[C@@H]2CC[C@]2(C)Oc4oc(C)cc(=O)c4C[C@@H]32)C1(C)C`, for which the IC50 in the data set with KB and with NCI-H187 was 32.7 µM each time. Also, the MIC in data set [9] amounted to 26.4 µM (≈ 12.5 µg/mL).

As for `CO[C@H]1OC(=O)[C@@]2(CC(=O)c3cc(O)ccc3O)C[C@@H]3[C@@H](C/C=C(\CC(=O)c4cc(O)ccc4O)C(=O)O)C(C=O)=CO[C@@H]3[C@@]12C` (racemic), the IC50 in data set [10] is 8.2 µM; in data set [11], less than 10 µM.

`CC(C)=CCC/C(C)=C/CCC1=C[C@]2(OC1=O)c1cc(O)ccc1OC(=O)[C@]2(CC/C=C(\C)CCC=C(C)C)CC(=O)c1cc(O)ccc1O` (racemic): the IC50 with A549 came out at 7.14 µM; in [12], 1.29 µM.

In the case of `CC1=C[C@H]2c3c(O)cc(C)c(C(=O)O)c3OC(C)(C)[C@H]2CC1` (relative stereo), in the data set with HL-60, the IC50 turned out to be 24.1 µM.
